In brackets after ≈: the same amount, converted by molar mass. Positions of bridges follow the written chain, without caps; N, C: chain ends. Residues, ends and D or L forms follow the SMILES beside them.
How the values were obtained:
[1] = test system: MT-4 cells; assay: Cytotoxicity on virus-noninfected MT-4 cells (MTT method); assay type: cell-based; details: 37° C., 5 days
Experimental: (§1) HIV-infected MT-4 cells (2.5×10^4 cells/well, multiplicity of infection (MOI): 0.001) immediately after infection were added together with the test substance with various changes of the concentration to a 96-well microtitre plate. After incubation at 37° C. for 5 days in a CO2 incubator, the number of survivor cells was measured by the MTT method [Pauwels et al.; J. Virol. Methods, 20, 309-321 (1988)]. The antiviral activity is expressed as a concentration at which cell death due to HIV infection is 50% inhibited (EC50 : 50% effective concentration). On the other hand, in order to know the cytotoxicity of the test substance on the MT-4 cells, virus-noninfected cells are incubated, likewise as above, together with the test compound with various changes of the concentration. The cytotoxicity is expressed as 50% cytotoxic concentration […] due to the test substance. Further, the rough ratio of CC50 to EC50 (CC50 /EC50) is expressed as an effective ratio (SI=selectivity index).

[2] = test system: HIV; assay: Antiviral activity against HIV in HIV-infected MT-4 cells (MTT method); assay type: cell-based, human immunodeficiency virus; details: for EC50 (concentration at which cell death due to HIV infection is 50% inhibited): HIV-infected MT-4 cells, MOI 0.001, 37° C., 5 days, MTT method
Experimental: The antiviral activity-against HIV of the polypeptide (1) synthesized in Example 1 as well as polypeptides (2), (3), (4), (7), (12), (13), (14), (20), (21) and (26) was tested and evaluated according to the following method.
as §1

N=C(N)NCCC[C@H](NC(=O)[C@@H]1CSSC[C@H](NC(=O)[C@H](Cc2c[nH]c3ccccc23)NC(=O)[C@@H](N)CCCNC(=N)N)C(=O)N[C@@H](Cc2ccc(O)cc2)C(=O)N[C@@H](CCCNC(=N)N)C(=O)N[C@@H](CCCCN)C(=O)N[C@H]2CSSC[C@H](NC(=O)[C@H](Cc3ccc(O)cc3)NC(=O)CNC(=O)[C@H](CCCCN)NC(=O)[C@H](Cc3ccc(O)cc3)NC2=O)C(=O)N[C@@H](Cc2ccc(O)cc2)C(=O)N[C@@H](CCCNC(=N)N)C(=O)N[C@@H](CCCCN)C(=O)N1)C(N)=O [polypeptide (26), ArgTrpCysTyrArgLysCysTyrLysGlyTyrCysTyrArgLysCysArgNH2] (H-RWCYRKCYKGYCYRKCR-NH2; disulfide 3-16, 7-12; N-terminus assumed)
CC50 (50% cytotoxic concentration) [1]: 165 µg/mL (≈ 70.8 µM) | EC50 (concentration at which cell death due to HIV infection is 50% inhibited) [2]: 0.18 µg/mL (≈ 0.0772 µM) | selectivity in killing HIV infected cells (in words) ([2]; MT-4 cells, Table III): particularly selective | selectivity index higher than for any of the known high endotoxin affinity compounds ([2]; compared with Tachyplesins and Polyphemusins of Table III): at least 7 fold

N=C(N)NCCC[C@H](NC(=O)[C@H](CCCNC(=N)N)NC(=O)[C@@H]1CSSC[C@H](NC(=O)[C@H](Cc2c[nH]c3ccccc23)NC(=O)[C@@H](N)CCCNC(=N)N)C(=O)N[C@@H](Cc2ccc(O)cc2)C(=O)N[C@@H](CCCNC(=N)N)C(=O)N[C@@H](CCCCN)C(=O)N[C@H]2CSSC[C@H](NC(=O)[C@H](Cc3ccccc3)NC(=O)CNC(=O)[C@H](CCCCN)NC(=O)[C@H](Cc3ccc(O)cc3)NC2=O)C(=O)N[C@@H](Cc2ccc(O)cc2)C(=O)N[C@@H](CCCNC(=N)N)C(=O)N[C@@H](CCCCN)C(=O)N1)C(N)=O [polypeptide (4), ArgTrpCysTyrArgLysCysTyrLysGlyPheCysTyrArgLysCysArgArgNH2] (H-RWCYRKCYKGFCYRKCRR-NH2; disulfide 3-16, 7-12; N-terminus assumed)
CC50 (50% cytotoxic concentration) [1]: 338 µg/mL (≈ 137 µM) | EC50 (concentration at which cell death due to HIV infection is 50% inhibited) [2]: 2.75 µg/mL (≈ 1.11 µM)

CC(C)[C@@H]1NC(=O)[C@H](CCCNC(=N)N)NC(=O)[C@H](Cc2ccccc2)NC(=O)[C@@H](NC(=O)[C@H](Cc2c[nH]c3ccccc23)NC(=O)[C@H](CCCNC(=N)N)NC(=O)[C@@H](N)CCCNC(=N)N)CSSC[C@@H](C(=O)N[C@@H](CCCNC(=N)N)C(N)=O)NC(=O)[C@H](CCCCN)NC(=O)[C@H](CCCNC(=N)N)NC(=O)[C@H](Cc2ccc(O)cc2)NC(=O)[C@@H]2CSSC[C@H](NC1=O)C(=O)N[C@@H](Cc1ccc(O)cc1)C(=O)N[C@@H](CCCCN)C(=O)NCC(=O)N[C@@H](Cc1ccccc1)C(=O)N2 [Polyphemusin II, ArgArgTrpCysPheArgValCysTyrLysGlyPheCysTyrArgLysCysArg NH2, reference compound] (H-RRWCFRVCYKGFCYRKCR-NH2; disulfide 4-17, 8-13)
CC50 (50% cytotoxic concentration) [1]: 33 µg/mL (≈ 13.6 µM) | EC50 (concentration at which cell death due to HIV infection is 50% inhibited) [2]: 1.9 µg/mL (≈ 0.783 µM) | SI (CC50 /EC50) ([2]; rough ratio of CC50 to EC50, MT-4 cells): 17

From US5449752A, “Polypeptides with affinity to lipopolysaccharides and their uses” (Seikagaku Kogyo K.K., priority 1991, dated 1995)
